Legend:
muscarinic M2 receptor = target: T1, muscarinic M2 receptor (Rattus norvegicus, UniProt P10980); test: Inhibition of M2 muscarinic receptor binding ([3H]-N-methylscopolamine, heart membrane); settings: 0.2 nM [3H]-N-methylscopolamine
T1 construct: the membrane preparations of the heart were used as the test specimens; from tissue; host or cells: rat heart membranes (male SD rats)
T1 sequence (P10980 1-466): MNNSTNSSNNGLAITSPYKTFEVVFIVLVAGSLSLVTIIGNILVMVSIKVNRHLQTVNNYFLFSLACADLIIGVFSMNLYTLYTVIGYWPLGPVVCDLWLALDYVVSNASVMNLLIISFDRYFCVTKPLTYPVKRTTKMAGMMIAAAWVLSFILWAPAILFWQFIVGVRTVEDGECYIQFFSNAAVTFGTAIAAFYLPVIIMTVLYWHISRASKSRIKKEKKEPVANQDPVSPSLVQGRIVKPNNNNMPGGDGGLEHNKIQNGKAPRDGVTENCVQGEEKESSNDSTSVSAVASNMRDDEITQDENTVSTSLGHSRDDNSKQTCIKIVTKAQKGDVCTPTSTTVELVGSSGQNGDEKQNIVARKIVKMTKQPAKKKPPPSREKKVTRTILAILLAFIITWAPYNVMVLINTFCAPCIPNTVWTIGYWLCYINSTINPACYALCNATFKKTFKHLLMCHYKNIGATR
Protocol: Hereinafter action of compounds of the present invention to inhibit binding to muscarinic receptors and their in vitro and in vivo antagonism to muscarinic receptors are described, to concretely indicate utility of the present invention. As the labelling ligand for M1 muscarinic receptor, [^3 H]-telenzepine was used and as that for M2 and M3 muscarinic receptors, [^3 H]-N-methyl-scopolamine was used, and dissociation constants (Ki) were calculated from concentration of each of the tested compounds to inhibit binding of the labelling ligand by 50% (IC50).
(§1) Male SD strain rats weighing each 250 g-350 g [Japan Charles River K.K.] were sacrificed and their cerebral cortices, hearts and lacrimal glands were extirpated. The isolated organs were homogenized with Polytron (setting: 5) in an ice-cooled, 5-times diluted buffer solution (pH 7.4) containing 50 mM tris-hydrochloric acid, 5 mM magnesium chloride, 1 mM ethylenediamine-tetraacetic acid trisodium salt and 20% sucrose, followed by 15 minutes' centrifuge at 3,000×g and 4° C. After filtering the supernatant through gauze cloth, the filtrate was further subjected to an ultracentrifugation at 100,000×g at 4° C. for 45 minutes. The resultant precipitate was suspended in an ice-cooled buffer solution (pH 7.4, hereafter abbreviated as tris buffer) containing 50 mM tris-hydrochloric acid and 5 mM magnesium chloride. The suspension was subjected to an ultracentrifugation at 100,000×g at 4° C. for 45 minutes. The resultant precipitate was suspended in tris buffer at a concentration of 50 mg/ml and kept at -80° C. until the time of use. It was melted at the time of use in the binding inhibition tests.
These tests were performed according to a modification of the method of Hargreaves et al. (Br. J. Pharmacol. 107: pp. 494-501, 1992). […] After drying the filter at 50° C. for an hour, a scintillator (Microscinti O: Packard Instrument Co., Inc.) was added and the radioactivity of the [^3 H]-telenzepine which was adsorbed onto the filter was measured with a microplate scintillation counter (Top Count: Packard Instrument Co., Inc.). Non-specific binding of [^3 H]-telenzepine to the receptors was determined under addition of 10 μM pirenzepine. […]
(§2) The test was conducted in the manner similar to above 2) M1 muscarinic receptor binding inhibition test, except that the membrane preparations of the heart were used as the test specimens and 0.2 nM [^3 H]-N-methylscopolamine ([^3 H]-N-Methylscopolamine, 84 Ci/mmol, New England Nuclear) was used as the labelling ligand. Non-specific binding of [^3 H]-N-methylscopolamine to the receptors was determined under addition of 1 μM N-methylscopolamine.

muscarinic M3 receptor = target: T2, muscarinic M3 receptor (Rattus norvegicus, UniProt P08483); test: Inhibition of M3 muscarinic receptor binding ([3H]-N-methylscopolamine, lacrimal gland membrane); settings: for Ki: rat lacrimal gland membrane, 0.02 nM [3H]-N-methylscopolamine; for M1 / M3 / M2 / M3: ratio of binding Ki
T2 construct: the membrane preparations of the lacrimal glands were used as the test specimens; from tissue; host or cells: rat lacrimal gland membranes (male SD rats)
Protocol: as §1
(§3) Namely, a cerebral cortex membrane preparation, 1 nM [^3 H]-telenzepine ([^3 H]-Telenzepine, 85 Ci/mmol, New England Nuclear) and a test compound were incubated in 0.5 ml of tris buffer at room temperature (about 20-25° C.) for 120 minutes. Into the incubated system, 0.5 ml of ice-cooled tris buffer was added and suction-filtered with a glass filter (Packard Unifilter Plate GF/C). The filter was washed 4 times each with 1 ml of ice-cooled tris buffer. After drying the filter at 50° C. for an hour, a scintillator (Microscinti O: Packard Instrument Co., Inc.) was added and the radioactivity of the [^3 H]-telenzepine which was adsorbed onto the filter was measured with a microplate scintillation counter (Top Count: Packard Instrument Co., Inc.). Non-specific binding of [^3 H]-telenzepine to the receptors was determined under addition of 10 μM pirenzepine.
as §2, with “lacrimal glands” for “heart”, “0.02” for “0.2”, “H]-N-methylscopolamine” for “H]-N-methylscopolamine ([^3 H]-N-Methylscopolamine, 84 Ci/mmol, New England Nuclear)”, “receptor” for “receptors”

right atrium M2 receptor = target: T3, right atrium M2 receptor (Rattus norvegicus, UniProt P10980); test: Antagonism to M2 receptor in isolated rat right atrium; settings: agonist carbachol
T3 construct: the right atrium was isolated; from tissue; host or cells: isolated rat right atrium (male SD rats)
T3 sequence (P10980 1-466): T1 sequence (P10980 1-466)
Protocol: This test was conducted following the method of Wess, et al. [British Journal of Pharmacology, Vol. 102, pp. 246-250]. Male SD strain rats (weighing 200-300 g) were sacrificed by exsanguination and the right atrium was isolated. […] The heart rate was recorded with a heart rate counter. After the preparation was equilibrated for 30 minutes, carbachol (10^-9 to 10^-6 M) was cumulatively administered from a low concentration to three-fold increased doses. Thus, a decrease in heart rate was measured to obtain a control dose-response curve. After the preparation was washed with fresh solution to recover the heart rate, a test compound was administered thereto. Ten minutes later, carbachol was cumulatively administered again. Carbachol-induced responses were expressed as percentages based on the heart rate before administration of carbachol as 100%.

airway M3 receptor = target: T4, airway M3 receptor (Rattus norvegicus, UniProt P08483); test: Antagonism to airway M3 receptor in isolated rat trachea; settings: agonist carbachol
T4 construct: the trachea was isolated; from tissue; host or cells: isolated rat trachea (male SD rats)
Protocol: Male SD strain rats (200-300 g) were sacrificed by exsanguination and the trachea was isolated. Ring segments (2 mm wide) were cut out from the trachea and cut transversely at the anterior cartilage part to make open ring preparations. Each preparation was suspended in a Magnus tube filled with 5 ml of Krebs-Henseleit solution (gassed with 95% O2 -5% CO2, at 37° C.) at an initial tension of 1.0 g and a resting tension of 0.6 g. The tension of the preparation was recorded isometrically. After being equilibrated for an hour, the preparation was made to contract twice by treatment with 10^-4 M carbachol, and the second contraction induced by carbachol was used as the reference contraction. After the preparation was washed with fresh solution to be recovered to the base line, a test compound was administered thereto (or no treatment was given). Ten minutes later, carbachol (10^-8 to 10^-3 M) was cumulatively administered in three-fold increased doses to obtain a dose-response curve. The dose-response curve was plotted by expressing responses as percentages based on the reference contraction of the preparation as 100%. The antagonistic potency (KB value) of the test compound was determined from the degree of shift of the dose-response curve obtained by treatment with the test compound.

ileum M3 receptor = target: T5, ileum M3 receptor (Rattus norvegicus, UniProt P08483); test: Antagonism to intestinal tract M3 receptor in isolated rat ileum; settings: agonist carbachol, read-out: KB ileus M3
T5 construct: the ileum was isolated and formed into 2 cm-long preparations; from tissue; host or cells: isolated rat ileum (male SD rats)
Protocol: Male SD strain rats (200-300 g) were sacrificed by exsanguination, and the ileum was isolated and formed into 2 cm-long preparations. […] Tension in the preparation was isotonically recorded. After an hour's equilibration, the preparation was contracted twice with 10^-6 M carbachol, the second contraction being recorded as the reference contraction. After the preparation was washed with fresh solution and recovered to the base line, a test compounds was administered thereto (or no treatment was given). Ten minutes later, carbachol (10^-8 to 10^-3 M) was cumulatively administered to the preparation from at a low concentration to three-fold increased dose to obtain a dose-response curve. The dose-response curve was plotted by expressing responses as percentages based on the reference contraction of the preparation which was set to be 100%.

bladder M3 receptor = target: T6, bladder M3 receptor (Rattus norvegicus, UniProt P08483); test: Antagonism to bladder M3 receptor in isolated rat urinary bladder; settings: agonist carbachol
T6 construct: the urinary bladder was isolated; from tissue; host or cells: isolated rat urinary bladder (male SD rats)
Protocol: Male SD strain rats (200-300 g) were sacrificed by exsanguination and the urinary bladder was isolated. The bladders were cut into four longitudinal unfold sections, to form about 10 mm-long preparations. Each preparation was suspended in a Magnus tube filled with 5 ml of Krebs-Henseleit solution (gassed with 95% O2 -5% CO2 at 32° C.) at an initial tension of 0.5 g. The tension in the preparation was isometrically recorded. After an hour's equilibration, the preparation was contracted twice with 10^-4 M carbachol, the second contraction being recorded as the reference contraction. After the preparation was washed with fresh solution and recovered to the base line, a test compound was administered thereto (or no treatment was given). Ten minutes later, carbachol (10^-8 to 10^-3 M) was cumulatively administered to the preparation from at a low concentration to three-fold increased dose to obtain a dose-response curve. The dose-response curve was plotted by expressing responses as percentages based on the reference contraction of the preparation which was set to be 100%. The antagonistic potency (KB value) of the test compound was determined from the degree of shift in the dose-response curve resulted from the treatment with the test compound.

[1] = system: airway resistance increase; test: Airway resistance enhancement in rats (acetylcholine-induced); assay type: in vivo, rat; settings: for ED50: iv, 5 min, rat, i.v., acetylcholine 50 μg/kg, read-out: airway constriction ID50; for activities in both airway constriction and bradycardia, in words: in vivo, Table 3, both tests
Protocol: Eight- to eleven-weeks-old Sprague-Dawley strain rats (300-400 g) were anesthetized with urethane (750 mg/kg, i.p.) and α-chloralose (37.5 mg/kg, i.p.). The bronchus of each rat was intubated, and the right jugular vein was cannulated for drug administration. […] After stable airway resistance increase induced by intravenous administration of acetylcholine (50 μg/kg) was observed, a test compound was administered intravenously. After 5 minutes, once again the airway resistance increase was induced with acetylcholine. The inhibition ratio of the tested compound on the airway resistance increase before administration of the test compound was calculated, and the dose of the test compound which inhibited the airway resistance obtained before the drug administration by 50% was recorded as ID50 value.

bradycardia = test: Rat bradycardia (acetylcholine-induced); assay type: in vivo; settings: for ED50: iv, 5 min, rat, i.v., acetylcholine 10 μg/kg, read-out: bradycardia ID50; for selectivity of bronchodilation over bradycardiac response, in words: in vivo, Table 3
Protocol: Eight- to eleven-weeks-old Sprague-Dawley strain rats (300-400 g) were anesthetized by intraperitoneal injection of urethane (750 mg/kg) and α-chloralose (37.5 mg/kg), and their right carotid artery, left juglar vein and airway of the rat were cannulated. […] After stable bradycardia induced by intravenous administration of acetylcholine (10 μg/kg) was observed, a test compound was intravenously administered. Five minutes later, bradycardia was induced once again with acetylcholine administration. The inhibition ratio to the bradyeardia obtained before the administration of the test compound was calculated, and the dose of the test compound which inhibited the bradycardia obtained before the drug administration by 50% was recorded as ID50 value.

muscarinic M1 receptor = target: T7, muscarinic M1 receptor (Rattus norvegicus, UniProt P08482); test: Inhibition of M1 muscarinic receptor binding ([3H]-telenzepine, cerebral cortex membrane); settings: 1 nM [3H]-telenzepine
T7 construct: a cerebral cortex membrane preparation, 1 nM; from tissue; host or cells: rat cerebral cortex membranes (male SD rats)
T7 sequence (P08482 1-460): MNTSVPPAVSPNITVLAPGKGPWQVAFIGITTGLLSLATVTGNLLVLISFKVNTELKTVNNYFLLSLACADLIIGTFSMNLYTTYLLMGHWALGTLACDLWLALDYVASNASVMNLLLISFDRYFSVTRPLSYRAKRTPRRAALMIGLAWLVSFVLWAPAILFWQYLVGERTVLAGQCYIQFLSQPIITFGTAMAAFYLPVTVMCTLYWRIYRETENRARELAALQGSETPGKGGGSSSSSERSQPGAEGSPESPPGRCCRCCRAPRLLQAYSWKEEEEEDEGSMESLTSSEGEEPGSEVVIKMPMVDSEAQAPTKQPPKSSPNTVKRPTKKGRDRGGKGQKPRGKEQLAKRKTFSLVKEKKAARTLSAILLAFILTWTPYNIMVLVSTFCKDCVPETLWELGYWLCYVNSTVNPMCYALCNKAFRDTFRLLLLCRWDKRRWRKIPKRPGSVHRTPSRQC
Protocol: as §1, §3

T2 sequence (P08483 whole entry): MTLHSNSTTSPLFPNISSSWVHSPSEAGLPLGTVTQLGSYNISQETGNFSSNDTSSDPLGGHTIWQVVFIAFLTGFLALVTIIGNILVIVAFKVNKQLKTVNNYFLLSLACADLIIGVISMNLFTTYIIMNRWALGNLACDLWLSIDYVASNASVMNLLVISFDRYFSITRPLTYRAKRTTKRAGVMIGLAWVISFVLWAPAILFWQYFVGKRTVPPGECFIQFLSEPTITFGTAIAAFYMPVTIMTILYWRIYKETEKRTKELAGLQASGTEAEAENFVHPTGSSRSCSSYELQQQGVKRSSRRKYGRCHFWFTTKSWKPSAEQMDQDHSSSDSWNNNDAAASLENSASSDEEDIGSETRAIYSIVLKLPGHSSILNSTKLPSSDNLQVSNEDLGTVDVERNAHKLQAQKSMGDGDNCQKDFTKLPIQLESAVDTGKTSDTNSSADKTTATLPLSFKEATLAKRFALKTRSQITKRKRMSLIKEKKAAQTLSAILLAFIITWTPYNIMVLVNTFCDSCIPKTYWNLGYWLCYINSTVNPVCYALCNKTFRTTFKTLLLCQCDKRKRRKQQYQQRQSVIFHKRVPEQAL
T4 sequence (P08483 whole entry): as above
T5 sequence (P08483 whole entry): as above
T6 sequence (P08483 whole entry): as above

| Structure (SMILES) | Ki (muscarinic M2 receptor) [nM] | Ki (muscarinic M3 receptor) [nM] | Kb (right atrium M2 receptor) [nM] | Kb (airway M3 receptor) [nM] | Kb (ileum M3 receptor) [nM] | Kb (bladder M3 receptor) [nM] | ED50 [1] [µg/kg] | ED50 (bradycardia) [µg/kg] | activities in both airway constriction and bradycardia, in words [1] | selectivity of bronchodilation over bradycardiac response, in words (bradycardia) | Ki (muscarinic M1 receptor) [nM] | M1 / M3 (muscarinic M3 receptor) | M2 / M3 (muscarinic M3 receptor) |
| --- | --- | --- | --- | --- | --- | --- | --- | --- | --- | --- | --- | --- | --- |
| Cc1cccc(CN2CCC(NC(=O)[C@](O)(c3ccccc3)C3CCCC3)CC2)n1.Cl.Cl [Example 1, (2R)-N-[1-(6-methyl-2-pyridylmethyl)piperidin-4-yl]-2-cyclopentyl-2-hydroxy-2-phenylacetamide dihydrochloride] | 1100 | 2.9 | 1100 | 4.4 | 70 | 3.6 | 37 | > 3000 | – | – | – | – | – |
| CC(C)[N+]1(C)[C@@H]2CC[C@H]1C[C@@H](OC(=O)C(CO)c1ccccc1)C2 (stereo partly shown) [ipratropium] | – | – | – | – | – | – | 1.5 | 1.8 | potent activities in both cases | non-selective | – | – | – |
| COc1ccnc(CN2CCC(NC(=O)C(O)(c3ccccc3)C3CCCC3)CC2)c1 (stereo not shown) [Example 9, N-[1-(4-methoxy-2-pyridylmethyl)piperidin-4-yl]-2-cyclopentyl-2-hydroxy-2-phenylacetamide] | 1300 | 9.4 | – | – | – | – | – | – | – | – | 29 | 3.1 | 140 |
| CN1[C@@H]2CC[C@H]1C[C@@H](OC(=O)C(CO)c1ccccc1)C2 (stereo partly shown) [atropine] | – | – | – | – | – | – | 4.3 | 3.7 | potent activities in both cases | non-selective | – | – | – |
| O=C(NC1CCN(Cc2cc(Cl)ccn2)CC1)C(O)(c1ccccc1)C1CCCC1 (stereo not shown) [Example 11, N-[1-(4-chloro-2-pyridylmethyl)piperidin-4-yl]-2-cylopentyl-2-hydroxy-2-phenylacetamide] | 730 | 8.8 | – | – | – | – | – | – | – | – | 11 | 1.3 | 83 |
| O=C(NC1CCN(Cc2cccc(Cl)n2)CC1)C(O)(c1ccccc1)C1CCCC1 (stereo not shown) [Example 10, N-[1-(6-chloro-2-pyridylmethyl)piperidin-4-yl]-2-cyclopentyl-2-hydroxy-2-phenylacetamide] | 1300 | 7.6 | – | – | – | – | – | – | – | – | 16 | 2.1 | 170 |

— patent US6130232A, “Substituted piperidine derivatives as muscarinic M3 receptor antagonists” (Banyu Pharmaceutical Coaltd, priority 1995, dated 2000)
